From patent US9012036B2, “Organometallic complex, composition and light emitting element including the organometallic complex” (Semiconductor Energy Laboratory Co., Ltd., priority 2007, dated 2015)

Legend:
[1] = solubility test in various solvents; assay type: physicochemical; details: for solubility in dimethylformamide (DMF) / solubility x, Solvents not having aromatic ring DMF: solvent DMF; for solubility in chloroform / solubility x, Solvents not having aromatic ring chloroform: solvent chloroform; for solubility in dioxane / solubility x, Ethers dioxane: solvent dioxane; for solubility in toluene / solubility x, sovents having aromatic ring toluene: solvent toluene
Description: In this Example, the solubility of an organometallic complex including a pyrazine skeleton described in Embodiment Mode 1 was measured. The measurement was performed by examining the solubility in various solvents: 2-ethoxyethanol, isopropanol, and ethanol, which are alcohols; dioxane, which is ether; chloroform and dimethylformamide (DMF), which are an organic solvent not including an aromatic ring; and toluene, which is an aromatic hydrocarbon-based solvent.
Among the complexes disclosed in Embodiment Mode 1, [Ir(tppr)2(dpm)] represented by the structural formula (147), which was synthesized in Example 1, is selected as a measurement object. The solubility was investigated. […]

[2] = decomposition temperature by differential thermal balance (TG-DTA); assay type: physicochemical; details: temperature increase rate 10° C./min, normal atmospheric pressure
Description: The decomposition temperature of the obtained organometallic complex of the present invention, [Ir(tppr)2(dpm)], was measured with a high vacuum differential type differential thermal balance (TG-DTA2410SA, manufactured by Bruker AXS K.K.). The temperature increase rate was 10° C./min, and the temperature was increased under normal atmospheric pressure.

Row | solubility x, Alcohols 2-ethoxyethanol ([1]; solvent 2-ethoxyethanol) | solubility in dimethylformamide (DMF) [1] [µg/mL] | solubility x, Solvents not having aromatic ring DMF [1] | solubility in chloroform [1] [µg/mL] | solubility x, Solvents not having aromatic ring chloroform [1] | solubility in dioxane [1] [µg/mL] | solubility x, Ethers dioxane [1] | solubility in ethanol ([1]; solvent ethanol) [µg/mL] | solubility x, Alcohols ethanol ([1]; solvent ethanol) | solubility in isopropanol ([1]; solvent isopropanol) [µg/mL] | solubility x, Alcohols isopropanol ([1]; solvent isopropanol) | solubility in toluene [1] [µg/mL] | solubility x, sovents having aromatic ring toluene [1] | decomposition temperature (reduction in weight by 5%) [2] [°C] | Substance
1 | ⊚ (x ≧ 1.2) | ≥ 1200 | ⊚ (x ≧ 1.2) | ≥ 1200 | ⊚ (x ≧ 1.2) | ≥ 1200 | ⊚ (x ≧ 1.2) | ≥ 600 | Δ (0.9 > x ≧ 0.6) | ≥ 600 | Δ (0.9 > x ≧ 0.6) | ≥ 600 | Δ (0.9 > x ≧ 0.6) | 327 | bis(2,3,5-triphenylpyrazinato)(dipivaloylmethanato)iridium(III) [Ir(tppr)2(dpm)]
2 | – | ≥ 1200 | ⊚ (x ≧ 1.2) | ≥ 1200 | ⊚ (x ≧ 1.2) | ≥ 1200 | ⊚ (x ≧ 1.2) | – | – | – | – | ≥ 1200 | ⊚ (x ≧ 1.2) | – | bis(2,3,5-triphenylpyrazinato)(pivaloyltrifluoroacetonato)iridium(III) [Ir(tppr)2(pFac)]
